{"source": "paper PMC7179399", "about": "“Development and Characterization of the Shortest Anti-Adhesion Peptide Analogue of B49Mod1” (Molecules, 2020)", "conditions_in_all_cases": "24 h", "key": {"[1]": {"test_system": "MCF7", "format": "cell-based, human", "procedure": "(§1) Viability Assay: Equivalent numbers of cells from each cell line was seeded in 96-well plate and incubated at 37 °C for 24 hours before treatment. The cells were treated with different concentration of peptides and incubated for 24 hours at 37 °C. 20 µl of 5mg/ml of MTT reagent was added to each well and incubated for 4 hours at 37 °C. The supernatant was then removed, followed by addition of 150 µl of MTT solvent, with shaking 15 min at room temperature. Absorbance at 590 nm was then measured through the BioTek Synergy H1 microplate reader."}, "[2]": {"test_system": "SKBR3", "format": "cell-based, human", "procedure": "as §1"}, "[3]": {"test_system": "human peripheral blood mononuclear cells (PBMCs)", "assay": "MTT viability assay, PBMCs", "format": "cell-based", "source_text": "Cell Lines: MDA-MB-468, MDA-MB-231, ZR-75-1, MCF7, and T47D were obtained from the Physical Sciences-Oncology Network (PS-ON) Bioresource Core Facility (PBCF) at American Type Culture Collection (ATCC, Manassas, VA, USA). SKBR3 cell line was a kind gift from Dr. Hyungjin Kim at Stony Brook University. ZR-75-1, MCF7, and T47D were maintained in complete RPMI 1640 media. MDA-MB-468, MDA-MB-231, and SKBR3 were maintained in complete DMEM media. Both complete RPMI and DMEM were supplemented with 10% FBS, 1% penicillin-streptomycin, 1 µg/mL Amphotericin B, 1% of l-glutamine, 2 mM sodium pyruvate, and 10 mM HEPES buffer at pH 8. Human Peripheral Blood Mononuclear Cells (PBMCs) were isolated from fresh human blood by Ficoll-Paque PLUS and cultured in complete RPMI 1640 media.\nas §1"}}, "note": "Ends that are not written are not given here.", "data": [{"sequence": "GFQDVEAQAATCNHTVMA [B18]", "values": [{"measurement": "IC50", "setting": "[1]", "value": "59.8 ± 5.3", "unit": "µM"}, {"measurement": "IC50", "setting": "[2]", "value": "11.2 ± 3.4", "unit": "µM"}, {"measurement": "cytotoxic effect on quiescent PBMCs", "setting": "[3]", "value": "no cytotoxic effect was observed"}]}]}
